Source: publication PMC8634040, “The multi-target aspect of an MmpL3 inhibitor: The BM212 series of compounds bind EthR2, a transcriptional regulator of ethionamide activation” (The Cell Surface, 2021)

How the values were obtained:
[1] = molecular target: EthR2 (Rv0078) (Mycobacterium tuberculosis, UniProt O53623); test: biochemical; type: binding
[2] = molecular target: T1, BCG_0109 (EthR2) (Mycobacterium tuberculosis, UniProt O53623); test: chemoproteomic competition with immobilised GSK569A/GSK574A beads, TMT LC-MS/MS; IC50 […]; type: biochemical
T1 construct: gene Rv0078

[3] = molecular target: T2, BCG_0174 (SnoaL-like domain-containing, ortholog to Rv0138) (Mycobacterium tuberculosis, UniProt A0A679LAM0); test: as above; type: biochemical
T2 construct: gene BQ2027_MB0143
T2 sequence (A0A679LAM0 entry or part of it): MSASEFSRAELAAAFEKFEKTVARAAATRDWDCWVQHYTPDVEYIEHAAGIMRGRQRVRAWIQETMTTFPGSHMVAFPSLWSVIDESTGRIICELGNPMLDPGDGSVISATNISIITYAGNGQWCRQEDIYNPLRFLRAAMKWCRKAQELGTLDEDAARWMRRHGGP

T1 sequence (O53623 entry or part of it): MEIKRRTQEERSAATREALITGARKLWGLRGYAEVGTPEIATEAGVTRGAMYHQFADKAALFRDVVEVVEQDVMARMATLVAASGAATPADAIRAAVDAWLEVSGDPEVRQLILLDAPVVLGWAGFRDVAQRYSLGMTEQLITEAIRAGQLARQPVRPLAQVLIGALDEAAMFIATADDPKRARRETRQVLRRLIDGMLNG
Chain of EthR2 (Rv0078) (O53623 entry or part of it): as above

Row | SMILES | Kd [1] [nM] | Kd [2] [nM] | Kd [3] [nM]
1 | Cc1c(CN2CCN(C)CC2)cc(-c2ccc(Cl)cc2)n1-c1ccc(Cl)cc1 [BM212, 1-((1,5-bis(4-chlorophenyl)-2-methyl-1H-pyrrol-3-yl)methyl)-4-methylpiperazine] | 660 |  | 
2 | Cc1c(CN2CCN(C)CC2)cc(-c2ccc(C(C)C)cc2)n1-c1ccc(F)cc1 [GSK074A, 1-((1-(4-Fluorophenyl)-5-(4-isopropylphenyl)-2-methyl-1H-pyrrol-3-yl)methyl)-4-methylpiperazine] |  | 2900 | 7300
